test system: not listed separately; experiment: Toxicity in Sprague-Dawley rat model of tail-snip bleeding assessed as bleeding time at 10 mg/kg, po administered via gavage as single dose measured within 2 hrs post tail snip (reference value: 17.69 min); type: organism-based; settings: in vivo

Compound | Time
CCCSc1nc(N[C@@H]2C[C@H]2c2ccc(F)c(F)c2)c2nnn([C@@H]3C[C@H](OCCO)[C@@H](O)[C@H]3O)c2n1 [TICAGRELOR] | 120 min

biological target: P2Y purinoceptor 12 (Homo sapiens, UniProt Q9H244); experiment: Antagonist activity at P2Y12 in human whole blood assessed as suppression of ADP-induced decrease in PGE1-induced VASP phosphorylation measured after 10 mins by immunostaining based flow cytometric analysis; type: tissue-based; settings: not given
Sequence (Q9H244 whole entry): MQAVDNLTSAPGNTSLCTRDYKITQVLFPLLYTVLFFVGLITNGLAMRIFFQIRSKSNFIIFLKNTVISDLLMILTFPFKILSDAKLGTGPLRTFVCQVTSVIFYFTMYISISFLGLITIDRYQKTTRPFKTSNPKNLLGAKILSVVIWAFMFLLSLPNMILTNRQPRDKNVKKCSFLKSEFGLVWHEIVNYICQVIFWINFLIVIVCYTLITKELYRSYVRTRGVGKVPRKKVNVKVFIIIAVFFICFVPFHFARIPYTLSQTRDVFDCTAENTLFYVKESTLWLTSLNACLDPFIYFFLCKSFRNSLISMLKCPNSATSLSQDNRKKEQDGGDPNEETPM

IC50 | Compound
5.14 µM | CCCSc1nc(N[C@@H]2C[C@H]2c2ccc(F)c(F)c2)c2nnn([C@@H]3C[C@H](OCCO)[C@@H](O)[C@H]3O)c2n1 [TICAGRELOR]
176 µM | CNc1nc(Cl)nc2c1ncn2CC(COC(=O)C(C)(C)C)COC(=O)C(C)(C)C

biological target: Xanthine dehydrogenase/oxidase (Bos taurus, UniProt P80457); experiment: Inhibition of bovine xanthine oxidase assessed as reduction in uric acid formation at 10 uM using xanthine as substrate preincubated for 15 mins followed by substrate addition measured at 30 sec interval for upto 2 mins by spectrophotometric analysis relative to control; settings: cattle, time 17 min
Sequence (P80457 whole entry): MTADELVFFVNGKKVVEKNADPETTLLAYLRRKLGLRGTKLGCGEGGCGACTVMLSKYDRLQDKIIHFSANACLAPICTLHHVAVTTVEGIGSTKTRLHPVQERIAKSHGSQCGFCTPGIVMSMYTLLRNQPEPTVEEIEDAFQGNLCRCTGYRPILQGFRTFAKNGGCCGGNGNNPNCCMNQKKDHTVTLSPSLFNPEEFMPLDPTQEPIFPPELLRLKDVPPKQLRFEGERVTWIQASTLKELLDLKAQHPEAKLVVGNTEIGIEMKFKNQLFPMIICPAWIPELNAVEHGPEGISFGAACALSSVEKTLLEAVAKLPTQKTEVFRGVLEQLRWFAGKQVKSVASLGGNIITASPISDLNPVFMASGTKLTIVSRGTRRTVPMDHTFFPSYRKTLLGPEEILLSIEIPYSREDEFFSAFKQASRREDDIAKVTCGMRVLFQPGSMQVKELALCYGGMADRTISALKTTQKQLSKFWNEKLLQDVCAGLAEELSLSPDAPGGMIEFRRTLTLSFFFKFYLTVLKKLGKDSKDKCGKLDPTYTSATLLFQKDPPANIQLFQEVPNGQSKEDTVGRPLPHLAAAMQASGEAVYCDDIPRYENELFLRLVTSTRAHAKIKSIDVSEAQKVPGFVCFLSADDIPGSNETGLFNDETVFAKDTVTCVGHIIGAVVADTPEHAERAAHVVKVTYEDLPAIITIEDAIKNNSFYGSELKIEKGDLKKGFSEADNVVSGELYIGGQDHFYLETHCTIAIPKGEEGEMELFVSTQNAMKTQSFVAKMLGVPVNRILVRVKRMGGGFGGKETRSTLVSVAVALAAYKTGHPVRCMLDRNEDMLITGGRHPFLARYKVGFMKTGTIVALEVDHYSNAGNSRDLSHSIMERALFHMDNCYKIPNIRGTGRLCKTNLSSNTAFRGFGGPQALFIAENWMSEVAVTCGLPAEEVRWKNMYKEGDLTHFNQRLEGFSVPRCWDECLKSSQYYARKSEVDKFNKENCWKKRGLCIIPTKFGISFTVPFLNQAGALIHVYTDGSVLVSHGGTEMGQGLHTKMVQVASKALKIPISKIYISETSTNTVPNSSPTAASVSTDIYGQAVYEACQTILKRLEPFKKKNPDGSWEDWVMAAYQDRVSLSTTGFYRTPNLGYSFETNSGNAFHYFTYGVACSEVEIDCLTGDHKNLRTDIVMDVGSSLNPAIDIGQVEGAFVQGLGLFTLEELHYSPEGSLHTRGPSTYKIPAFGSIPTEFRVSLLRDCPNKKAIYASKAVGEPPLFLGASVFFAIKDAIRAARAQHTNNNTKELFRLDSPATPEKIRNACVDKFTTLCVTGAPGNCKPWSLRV

inhibition at 10 µM | Compound
< 50% | CCCSc1nc(N[C@@H]2C[C@H]2c2ccc(F)c(F)c2)c2nnn([C@@H]3C[C@H](OCCO)[C@@H](O)[C@H]3O)c2n1 [TICAGRELOR]

test system: not listed separately; experiment: Antagonist activity at P2Y1 in rabbit platelet-rich plasma assessed as inhibition of ADP-induced increase in intracellular Ca2+ concentration preincubated for 5 mins followed by ADP addition and measured for 3 mins by fluo4 dye-based fluorescence assay; type: cell-free; settings: Oryctolagus cuniculus

IC50 | Compound
3.03 µM | CC(C)(C)c1ccccc1Oc1ncccc1NC(=O)Nc1ccc(OC(F)(F)F)cc1

test system: Plasma; experiment: Antiplatelet activity in rabbit platelet-rich plasma assessed as inhibition of ADP-induced platelet aggregation preincubated for 5 mins followed by ADP addition measured every 1 min for up to 6 mins by microplate reader analysis; type: functional, cell-free; settings: Oryctolagus cuniculus

IC50 | Compound
24.6 µM | CCOC(=O)c1c(C)nc(-c2cccc(C#N)c2)n1OCc1ccc(Br)cc1
6.8 µM | CCOC(=O)COn1c(-c2cccc(C#N)c2)nc(C)c1C(=O)OCC
14.9 µM | CCOC(=O)c1c(C)nc(-c2ccccc2C#N)n1OC
6.25 µM | CCOCCOn1c(-c2cccc(C#N)c2)nc(C)c1C(=O)OCC
8.71 µM | CCOC(=O)c1c(C)nc(-c2cccc(C#N)c2)n1OCc1ccccc1Cl
19.4 µM | CCOC(=O)c1c(C)nc(-c2cccc(C#N)c2)n1OCc1cccc(Cl)c1
9.13 µM | CCOC(=O)c1c(C)nc(-c2cccc(C#N)c2)n1OC
6.31 µM | CCOC(=O)c1c(C)nc(-c2cccc(C#N)c2)n1OCc1ccc(C)cc1
5.88 µM | CCOC(=O)c1c(C)nc(-c2cccc(C#N)c2)n1OCc1ccc(F)cc1
6.2 µM | CCOC(=O)c1c(C)nc(-c2cccc(C#N)c2)n1OCc1ccncc1
5.54 µM | CC(C)(C)c1ccccc1Oc1ncccc1NC(=O)Nc1ccc(OC(F)(F)F)cc1
6.56 µM | Cc1ccc(COn2c(-c3cccc(C#N)c3)nc(C)c2C(=O)O)cc1
7.99 µM | COn1c(-c2cccc(C#N)c2)nc(C)c1C(=O)O
9.26 µM | CCOC(=O)c1c(C)nc(-c2cccc(C#N)c2)n1C(C)C
> 30 µM | CCOC(=O)c1c(C)nc(-c2cccc(C#N)c2)n1OCc1cccc(C#N)c1
22.4 µM | CCOC(=O)c1c(C)nc(-c2cccc(C#N)c2)n1OCc1cccc(F)c1
16.8 µM | CCOC(=O)c1c(C)nc(-c2ccc(OCC(C)C)c(C#N)c2)n1O
6.83 µM | CCOC(=O)c1c(C)nc(-c2cccc(C#N)c2)n1OCc1ccc(OC)cc1
8.75 µM | CCOC(=O)c1c(C)nc(-c2cccc(C#N)c2)n1OCc1ccc([N+](=O)[O-])cc1

IC50 | Compound
22.1 µM | CCOC(=O)c1c(C)nc(-c2cccc(C#N)c2)n1C
6.35 µM | C=CCOn1c(-c2cccc(C#N)c2)nc(C)c1C(=O)O
7.21 µM | CCCSc1nc(N[C@@H]2C[C@H]2c2ccc(F)c(F)c2)c2nnn([C@@H]3C[C@H](OCCO)[C@@H](O)[C@H]3O)c2n1 [TICAGRELOR]
5.86 µM | C=CCOn1c(-c2cccc(C#N)c2)nc(C)c1C(=O)OCC
5.93 µM | CCOC(=O)c1c(C)nc(-c2cccc(C#N)c2)n1OCc1ccccc1
9.47 µM | CCOC(=O)c1c(C)nc(-c2cccc(C#N)c2)n1OCc1ccc(C(=O)OC)cc1
> 30 µM | CCOC(=O)c1c(C)nc(-c2ccccc2)n1OC
11.4 µM | CCOC(=O)c1c(C)nc(-c2cccc(C#N)c2)n1OCCCO
> 30 µM | CCOC(=O)c1[nH]c(-c2cccc(C#N)c2)nc1C
13.4 µM | CCOC(=O)c1c(C)nc(-c2ccc(C#N)cc2)n1OC
6.74 µM | CCOC(=O)c1c(C)nc(-c2cccc(C#N)c2)n1OC(C)C
6.83 µM | CCOC(=O)c1c(C)nc(-c2cccc(C#N)c2)n1OCc1ccc(Cl)cc1
17.6 µM | CCOC(=O)c1c(C)nc(-c2cccc(C#N)c2)n1O
8.99 µM | CCOC(=O)c1c(C)nc(-c2cccc(C#N)c2)n1OCc1ccccc1F
9.38 µM | CCOC(=O)c1c(C)nc(-c2cccc(C#N)c2)n1OCc1ccccc1C#N
6.24 µM | Cc1nc(-c2cccc(C#N)c2)n(OCc2ccccc2)c1C(=O)O
15.7 µM | Cc1nc(-c2ccc(OCC(C)C)c(C#N)c2)n(O)c1C(=O)O
> 30 µM | CCOC(=O)c1c(C)nc(-c2cccc(C#N)c2)n1OCC(N)=O
> 30 µM | CCOC(=O)c1c(C)nc(-c2cccc(C#N)c2)n1OCCC(=O)O

test system: not listed separately; experiment: Toxicity in Sprague-Dawley rat model of tail snip bleeding assessed as bleeding weight at 10 mg/kg, po administered via gavage as single dose measured within 2 hrs post tail snip(reference value: 0.08 g); type: organism-based; settings: in vivo

Compound | Activity
CCCSc1nc(N[C@@H]2C[C@H]2c2ccc(F)c(F)c2)c2nnn([C@@H]3C[C@H](OCCO)[C@@H](O)[C@H]3O)c2n1 [TICAGRELOR] | 3.89 g

test system: Rattus norvegicus; experiment: Antithrombotic activity in FeCl3-induced Sprague-Dawley rat model of arterial thrombosis assessed as reduction in thrombus weight at 10 mg/kg, po qd administered as single dose for 7 days and measured 2 hrs post last dose; type: functional; design: scale not given: the % may be the effect or the level left; settings: time 7 day

Compound | Activity
CCCSc1nc(N[C@@H]2C[C@H]2c2ccc(F)c(F)c2)c2nnn([C@@H]3C[C@H](OCCO)[C@@H](O)[C@H]3O)c2n1 [TICAGRELOR] | 39.2%

Source: ChEMBL document CHEMBL4673353, “Switching a Xanthine Oxidase Inhibitor to a Dual-Target Antagonist of P2Y and P2Y as an Oral Antiplatelet Agent with a Wider Therapeutic Window in Rats than Ticagrelor” (J Med Chem, 2020)
